Assay results as given in publication PMC5356226 (ACS chemical biology, 2016).

Columns and labels:
hGLUT1 [1] = target: T1, hGLUT1 (Homo sapiens, UniProt P11166); test: [3H]-2-deoxy-D-glucose uptake inhibition assay in CHO-hGLUT1 cells; type: cell-based
T1 sequence (P11166 1-492): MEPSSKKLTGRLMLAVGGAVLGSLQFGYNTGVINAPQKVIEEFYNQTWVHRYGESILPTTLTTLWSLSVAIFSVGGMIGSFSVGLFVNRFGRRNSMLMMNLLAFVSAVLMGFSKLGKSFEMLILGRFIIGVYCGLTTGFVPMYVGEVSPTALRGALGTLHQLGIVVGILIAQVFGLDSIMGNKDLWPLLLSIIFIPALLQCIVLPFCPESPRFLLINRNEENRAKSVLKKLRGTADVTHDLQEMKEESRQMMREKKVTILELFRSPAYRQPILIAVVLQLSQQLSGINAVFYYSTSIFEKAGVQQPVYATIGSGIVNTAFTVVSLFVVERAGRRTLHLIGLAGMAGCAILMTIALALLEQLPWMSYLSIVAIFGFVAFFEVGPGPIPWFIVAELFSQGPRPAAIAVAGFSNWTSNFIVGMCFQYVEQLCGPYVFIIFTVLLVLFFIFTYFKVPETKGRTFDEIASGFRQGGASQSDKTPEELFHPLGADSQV

hGLUT1 [2] = target: T1, hGLUT1; details: known hGLUT1 inhibitors; cited from earlier work

IC50 (hGLUT1 [1]) [µM]	Compound	LE (ligand efficiency) (hGLUT1 [2]) [kcal/mol/HA]
23	O=C(CCc1ccc(O)cc1)c1c(O)cc(O)cc1O[C@@H]1O[C@H](CO)[C@@H](O)[C@H](O)[C@H]1O [PUG-5, phlorizin]	–
–	C=C1[C@@H](C)[C@H]2[C@H](Cc3ccccc3)NC(=O)[C@]23OC(=O)/C=C/[C@H](O)CCC[C@@H](C)C/C=C/[C@H]3[C@@H]1O [cytochalasin B]	0.265
–	C=C[C@@]1(C)CC(=O)[C@]2(O)[C@@]3(C)[C@@H](O)CCC(C)(C)[C@@H]3[C@H](O)[C@H](OC(C)=O)[C@@]2(C)O1 [forskolin]	0.270
